{
  "source": "patent USRE39282E1",
  "about": "“Nucleic acid derivatives” (SmithKline Beecham Corporation, priority 1989, dated 2006)",
  "tested_on": "HIV-1 isolates",
  "test": "plaque-reduction assay with HT4-6C cell monolayers, HIV isolates from untreated and treated individuals",
  "type": "cell-based",
  "method": "The isolation of HIV-1 was achieved according to methodology reported by Larder et al. PBL samples were prepared by separation on “Ficoll-hypaque” gradients and co-cultivated directly with MT-2 cells (approximately 10^6 of each) after pre-stimulation for 24 to 72 hours with phytohaemag-glutinin (3 μg/ml). In many cases PBLs were cultured after long-term frozen storage. Cultures were maintained in RPMI 1640 supplemented with 10% fetal bovine serum, antibiotics, 2% interleukin-2, and polybrene (2 μg/ml) and expanded by addition of fresh MT-2 cells when a cytopathic effect was observed (between 4 and 14 days). HIV replication was confirmed by the detection of p24 antigen in culture supernatants (p24 antigen detection kit, Abbott, Chicago, Ill.). Virus were prepared from infected cultures and stored in aliquots at −70° C. […] (Larder, B. A., Darby, G., Richman, D., Science, 243, 1731, (1989)).",
  "note": "Like-named read-outs stand apart in the source and are kept apart here.",
  "data": [
    {"smiles": "Cc1cn([C@H]2C[C@H](N=[N+]=[N-])[C@@H](CO)O2)c(=O)[nH]c1=O", "note": "[zidovudine, 3′-Azido-3′-deoxythymidine]", "values": [
      {"measurement": "IC50", "setting": "Human immunodeficiency virus 1, read-out: ZIDOVUDINE SENSITIVITY (ID50 μM), HIV isolate A012D, 26 months of therapy, RT 67 Asn, 70 Arg, 215 Phe, 219 Gln", "value": 2, "unit": "µM"},
      {"measurement": "IC50", "setting": "Human immunodeficiency virus 1, read-out: ZIDOVUDINE SENSITIVITY (ID50 μM), HIV isolate A018C, 14 months of therapy, RT 67 Asn, 70 Arg, 215 Tyr, 219 Gln", "value": 2.3, "unit": "µM"},
      {"measurement": "IC50", "setting": "Human immunodeficiency virus 1, read-out: ZIDOVUDINE SENSITIVITY (ID50 μM), HIV isolate A036C, 11 months of therapy, RT 67 Asp, 70 Lys, 215 Tyr, 219 Lys", "value": 0.6, "unit": "µM"},
      {"measurement": "IC50", "setting": "Human immunodeficiency virus 1, read-out: ZIDOVUDINE SENSITIVITY (ID50 μM), HIV isolate A036D, 20 months of therapy, RT 67 Asn, 70 Arg, 215 Tyr, 219 Lys", "value": 5.6, "unit": "µM"},
      {"measurement": "IC50", "setting": "Human immunodeficiency virus 1, read-out: ZIDOVUDINE SENSITIVITY (ID50 μM), HIV isolate P022C, 16 months of therapy, RT 67 Asn, 70 Arg, 215 Phe, 219 Gln", "value": 1.4, "unit": "µM"},
      {"measurement": "IC50", "setting": "Human immunodeficiency virus 1, read-out: ZIDOVUDINE SENSITIVITY (ID50 μM), HIV isolate P035A, 6 months of therapy, RT 67 Asp, 70 Lys, 215 Tyr, 219 Lys", "value": 0.56, "unit": "µM"},
      {"measurement": "IC50", "setting": "Human immunodeficiency virus 1, read-out: ZIDOVUDINE SENSITIVITY (Mean ID50, μM), HIV isolate A012D, Table 2", "value": 2.56, "unit": "µM"},
      {"measurement": "IC50", "setting": "Human immunodeficiency virus 1, read-out: Zidovudine Sensitivity (ID50 μM), HIV isolate A001A, 0 months of therapy, RT sequence wild type, Table 3", "value": 0.03, "unit": "µM"},
      {"measurement": "IC50", "setting": "Human immunodeficiency virus 1, read-out: Zidovudine Sensitivity (ID50 μM), HIV isolate A001B, 12 months of therapy, RT sequence R70 and N67 R70 Q219, Table 3", "value": 0.11, "unit": "µM"},
      {"measurement": "IC50", "setting": "Human immunodeficiency virus 1, read-out: Zidovudine Sensitivity (ID50 μM), HIV isolate A012D, 26 months of therapy, RT N67 R70 F215 Q219, Table 3", "value": 2, "unit": "µM"},
      {"measurement": "IC50", "setting": "Human immunodeficiency virus 1, read-out: Zidovudine Sensitivity (ID50 μM), HIV isolate A018C, 14 months of therapy, RT N67 R70 Y215 Q219, Table 3", "value": 4, "unit": "µM"},
      {"measurement": "IC50", "setting": "Human immunodeficiency virus 1, read-out: Zidovudine Sensitivity (ID50 μM), HIV isolate A025A, 24 months of therapy, RT R70, Table 3", "value": 0.11, "unit": "µM"},
      {"measurement": "IC50", "setting": "Human immunodeficiency virus 1, read-out: Zidovudine Sensitivity (ID50 μM), HIV isolate A036C, 11 months of therapy, RT Y215, Table 3", "value": 0.67, "unit": "µM"},
      {"measurement": "IC50", "setting": "Human immunodeficiency virus 1, read-out: Zidovudine Sensitivity (ID50 μM), HIV isolate A036D, 20 months of therapy, RT N67 R70 Y215, Table 3", "value": 5.6, "unit": "µM"}
    ]}
  ]
}
